Measurements as given in ChEMBL document CHEMBL4359934, “Green chemistry appended synthesis, metabolic stability and pharmacokinetic assessment of medicinally important chromene dihydropyrimidinones” (Bioorg Med Chem Lett, 2019).
Values after ≈ are worked out from the molar mass of the structure shown.

What was measured:
[1] = Metabolic stability in rat liver microsomes assessed as remaining compound at 10 uM measured at 45 mins by LC-MS/MS analysis relative to control; format: ADME, Microsome; conditions: read-out: Stability
[2] = Permeability coefficient of compound incubated for 5 hrs by LC-MS/MS analysis based PAMPA assay; format: ADME
[3] = Intrinsic clearance in human microsomes at 10 uM by LC-MS/MS analysis; format: ADME, Microsome
[4] = Intrinsic clearance in human liver at 10 uM by LC-MS/MS analysis; format: ADME, tissue-based; conditions: read-out: CLH
[5] = Metabolic stability in rat liver microsomes assessed as remaining compound at 10 uM measured at 30 mins by LC-MS/MS analysis relative to control; format: ADME, Microsome; conditions: read-out: Stability
[6] = Metabolic stability in rat liver microsomes assessed as half life at 10 uM by LC-MS/MS analysis; format: ADME, Microsome
[7] = Protein binding in plasma (unknown origin) incubated for 4 hrs by red equilibrium dialysis based LC-MS/MS analysis; format: ADME, cell-free; conditions: read-out: PPB
[8] = n-Octanol-water partition coefficient, log P of compound incubated for 4 hrs by LC-MS/MS analysis; format: physicochemical
[9] = Ratio of drug level in blood to plasma (unknown origin) at 500 nM incubated for 15 mins by LC-MS/MS analysis; format: ADME, cell-free; conditions: blood and plasma
[10] = Intrinsic clearance in rat liver at 10 uM by LC-MS/MS analysis; format: ADME, tissue-based; conditions: read-out: CLH
[11] = Ratio of drug level in blood to plasma (unknown origin) at 500 nM incubated for 30 mins by LC-MS/MS analysis; format: ADME, cell-free; conditions: blood and plasma
[12] = test system: A549; test: Cytotoxicity against human A549 cells assessed as reduction in cell viability by MTT assay; format: functional, cell-based
[13] = Stability in human liver microsomes assessed as hepatic extraction ratio at 10 uM by LC-MS/MS analysis; format: ADME, Microsome; conditions: read-out: ERH
[14] = Ratio of drug level in blood to plasma (unknown origin) at 500 nM measured immediately by LC-MS/MS analysis; format: ADME, cell-free; conditions: blood and plasma
[15] = Metabolic stability in human liver microsomes assessed as half life at 10 uM by LC-MS/MS analysis; format: ADME, Microsome
[16] = Metabolic stability in human liver microsomes assessed as remaining compound at 10 uM measured at 30 mins by LC-MS/MS analysis relative to control; format: ADME, Microsome; conditions: read-out: Stability
[17] = species on record: Rattus norvegicus; test: Inhibition of rat P-gp ATPase in jejuna mucosa membrane at 10 to 40 uM using ATP as substrate preincubated for 5 mins followed by substrate addition and measured after 30 mins relative to control; format: cell membranes
[18] = species on record: Rattus norvegicus; test: Inhibition of rat P-gp ATPase in jejuna mucosa membrane assessed as remaining enzyme activity at 10 to 40 uM using ATP as substrate preincubated for 5 mins followed by substrate addition and measured after 30 mins; format: cell membranes
[19] = Metabolic stability in human liver microsomes assessed as remaining compound at 10 uM measured at 45 mins by LC-MS/MS analysis relative to control; format: ADME, Microsome; conditions: read-out: Stability
[20] = Metabolic stability in human liver microsomes assessed as remaining compound at 10 uM measured at 15 mins by LC-MS/MS analysis relative to control; format: ADME, Microsome; conditions: 0.25 h
[21] = Ratio of drug level in blood to plasma (unknown origin) at 500 nM incubated for 60 mins by LC-MS/MS analysis; format: ADME, cell-free; conditions: blood and plasma
[22] = n-Octanol-PBS buffer distribution coefficient, log D of compound incubated for 4 hrs by LC-MS/MS analysis; format: physicochemical
[23] = Intrinsic clearance in rat microsome at 10 uM by LC-MS/MS analysis; format: ADME; conditions: microsomes
[24] = Metabolic stability in rat liver microsomes assessed as remaining compound at 10 uM measured at 15 mins by LC-MS/MS analysis relative to control; format: ADME, Microsome; conditions: read-out: Stability
[25] = Stability in rat liver microsomes assessed as hepatic extraction ratio at 10 uM by LC-MS/MS analysis; format: ADME, Microsome; conditions: read-out: ERH
[26] = Solubility of compound in water incubated for 5 hrs by LC-MS/MS analysis; format: physicochemical
[27] = Ratio of drug level in blood to plasma (unknown origin) at 500 nM incubated for 45 mins by LC-MS/MS analysis; format: ADME, cell-free; conditions: blood and plasma
[28] = species on record: Rattus norvegicus; test: Inhibition of rat P-gp ATPase in jejuna mucosa membrane assessed as remaining enzyme activity at 20 uM using ATP as substrate preincubated for 5 mins followed by substrate addition and measured after 30 mins; format: cell membranes

For CCOC(=O)C1=C(C)NC(=O)NC1c1cc2c(cc1OC)OC(C)(CC)C=C2Cl (stereo not drawn), the remaining at 0.75 h, 10 µM [1] was 76%, the “log Pe” value [2] was “Dose-dependent effect” and the CLint [3] was 20.6 µL/min/mg. The CLint scaled at 10 µM [4] was 32.3 mL/min/kg, the remaining at 0.5 h, 10 µM [5] was 76% and the half-life at 10 µM [6] was 1.18 h. For the same compound, the fraction unbound at 4 h [7] was less than 0.1, the logP at 4 h [8] was 4.06 and the blood plasma ratio at 0.25 h, 0.5 µM [9] was 1.11. The CLint scaled at 10 µM [10] was 34 mL/min/kg, the blood plasma ratio at 0.5 h, 0.5 µM [11] was 1.25 and the IC50 [12] was 139 nM. It also gave a hepatic extraction ratio at 10 µM [13] of 0.6, a blood plasma ratio at 0 min, 0.5 µM [14] of 0.9 and a t1/2 [15] of 1.38 h. For the same compound, the remaining at 0.5 h, 10 µM [16] was 73%, the inhibition [17] was 1 to 12% and the Activity [18] was 6.7 µM/min/µL. For the same compound, the remaining at 0.75 h, 10 µM [19] was 73%, the Stability [20] was 73% and the blood plasma ratio at 1 h, 0.5 µM [21] was 1.4. It also gave a logD at 4 h [22] of 0.08, a CLint [23] of 19 µL/min/mg and a remaining at 0.25 h, 10 µM [24] of 76%. For the same compound, the hepatic extraction ratio at 10 µM [25] was 0.41, the solubility at 5 h [26] was 6.8 µg/mL (≈ 16.2 µM) and the blood plasma ratio at 0.75 h, 0.5 µM [27] was 1.35.
O[C@@H](COc1cccc2ncccc12)CN1CCN([C@@H]2c3ccccc3[C@@H]3[C@H](c4ccccc42)C3(F)F)CC1 gave an Activity [28] of 2.8 µM/min/µL.
For CC(C)NCC(O)COc1ccc(CC(N)=O)cc1 (stereo not drawn) [ATENOLOL], the blood plasma ratio at 0.25 h, 0.5 µM [9] was 1.17, the blood plasma ratio at 0.5 h, 0.5 µM [11] was 1.2 and the blood plasma ratio at 0 min, 0.5 µM [14] was 1.3. The blood plasma ratio at 1 h, 0.5 µM [21] was 1 and the blood plasma ratio at 0.75 h, 0.5 µM [27] was 1.15.
